Measurements reported in US20240285808A1, “MOLECULAR PROBES FOR IN VIVO DETECTION OF ALDEHYDES” (The General Hospital Corporation, priority 2021, published 2024).
Values joined by “and” are separate entries in the source; they are usually repeats but may differ in a detail not shown here. Equal entries are not always repeated. “Also recorded” adds a separate entry of the source.

What was measured:
[1] = Reaction rates with 2-formylpyridine measured by HPLC-ICP-MS (Method A); format: physicochemical; conditions: Method a: 2-formylpyridine 1000 μM, probe 25 μM, pH 7.40 PBS
Description: Quantitative Measurement of Reaction Rates with Aldehydes: Method A: Reaction Rates of Compounds with 2-Formylpyridine Measured by HPLC-ICP-MS
Reactivity of aldehyde-binding probes were assessed in pH 7.40 phosphate-buffered saline under pseudo-first order conditions with 2-formylpyridine concentration of 1000 μM and probes at 25 μM. Concentrations of unreacted starting material and condensation products were determined at 12 min time intervals based on their relative integrations. The values were fit to a standard first order rate constant linear equation and the rate constant was extracted from the slope.

[2] = system: fibrotic lung tissue of bleomycin-injured mice; assay: Biodistribution study for selectivity of allysine-reactive Gd probes (Gd:Eu ratio by ICP-MS); format: in vivo, mouse; conditions: 30 minutes after injection, 100 nmol/g, Eu-DOTA co-injected, n = 5
Description: C57Bl/6 adult male mice at 8 weeks of age (Jackson Laboratories, Barr Harbor, ME) received a single intratracheal dose of bleomycin, 1 units/kg body weight (50 μL total volume) (Fresenius Kabi, Lake Zurich, Il) as previously described in Desogere, P., et al. Optimization of a Collagen-Targeted PET Probe for Molecular Imaging of Pulmonary Fibrosis. J Nuc Med 58, 1991-1996 (2017).
Imaging and Biodistribution Study for Selectivity of Allysine-Reactive Probes In Vivo:
Bleomycin-injured mice at 14 days after injury were sedated and then injected with Compound 19, Compound 20, Gd-CHyd (Akam, E. A., et al. Improving the reactivity of hydrazine-bearing MRI probes for in vivo imaging of lung fibrogenesis. Chemical Science 11, 224-231 (2020)) formulated to contain an equal concentration of Eu-DOTA as a non-binding control probe. […] Each sample was analyzed by ICP-MS for gadolinium and europium content, and the lungs were also assessed for hydroxyproline content. […] All animals were dosed via tail vein injection at 100 nmol/g body weight from 30 mM solutions of gadolinium probes with 30 mM Eu-DOTA as determined by ICP-MS. […] Animals were euthanized 90 min post injection and their organs and tissues were harvested and counted using a gamma counter. […] The animals were euthanized 90 min post injection and their organs and tissues were counted using a gamma counter. […]

[3] = Transmetalation experiment with Zn^2+ monitored by relaxivity; format: physicochemical; conditions: 1 mM complex, 25 mM Zn^2+, 50 mM pH 6.0 MES buffer, 37° C., 1.4 T
[4] = target: T1, BSA-ALD (oxidized bovine serum albumin containing allysine aldehyde groups) (Bos taurus, UniProt P02769); assay: Relaxivity measurements with BSA-Ald; format: binding
T1 construct: made in house; host or cells: no expression host: BSA oxidised chemically with sodium ascorbate, ferric chloride and H2O2, then desalted on PD-10
T1 sequence (P02769 25-607): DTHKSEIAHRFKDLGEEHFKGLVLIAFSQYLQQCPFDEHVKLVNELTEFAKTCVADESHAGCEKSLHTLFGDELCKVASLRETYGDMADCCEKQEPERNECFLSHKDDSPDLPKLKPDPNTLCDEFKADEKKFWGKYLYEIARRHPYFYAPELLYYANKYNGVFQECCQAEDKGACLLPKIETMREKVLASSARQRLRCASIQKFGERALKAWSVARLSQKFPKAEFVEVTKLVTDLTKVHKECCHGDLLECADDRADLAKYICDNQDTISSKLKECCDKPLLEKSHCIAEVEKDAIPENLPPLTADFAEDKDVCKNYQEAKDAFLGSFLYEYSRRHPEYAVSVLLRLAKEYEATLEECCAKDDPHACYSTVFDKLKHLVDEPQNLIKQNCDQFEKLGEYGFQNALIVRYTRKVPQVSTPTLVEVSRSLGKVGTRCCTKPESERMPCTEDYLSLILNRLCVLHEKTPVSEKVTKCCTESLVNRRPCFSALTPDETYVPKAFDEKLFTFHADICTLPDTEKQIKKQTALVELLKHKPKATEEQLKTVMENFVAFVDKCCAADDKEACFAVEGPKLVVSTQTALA
Description: Preparation of Allysine Containing Bovine Serum Albumin, BSA-ALD:
To a solution of bovine serum albumin (BSA) (100 mg) dissolved in phosphate buffered saline (4 mL, pH 7.4, 0.25 mM), sodium ascorbate (20 mg), ferric chloride (120 μL, 10 mM) and 20 μL H2O2 (30% w) were added. The reaction was stirred at 37° C. for 24 hours, and sodium ascorbate (20 mg) was added repeatedly every 8 hours. After the reaction, protein was purified using PD-10 Sephadex G25 desalting columns (GE Healthcare), eluted with PBS. Protein concentration was assessed using the ‘BCA Protein Assay Kit’ (Thermo Scientific). Protein carbonyl concentration was determined by ‘Protein Carbonyl Content Assay Kit’ (Sigmal-Aldrich).
Alternatively, preparation of BSA^Ald and binding of Gd^3+ probe to protein was carried out according to modified procedures. To a solution of bovine serum albumin (BSA) (100 mg) dissolved in phosphate buffered saline (4 mL, pH 7.4, 0.25 mM) was added sodium ascorbate (20 mg), ferric chloride (120 μL, 10 mM) and 20 μL H2O2 (30% w). The reaction was stirred at 37° C. for 24 h, and sodium ascorbate (20 mg) was added repeatedly every 8 h. After 24 h, the protein was purified using PD-10 Sephadex G25 desalting columns (GE Healthcare), eluted with PBS. Protein concentration was assessed using the ‘Micro BCA Protein Assay Kit’ (Thermo Scientific, 23235). Protein carbonyl concentration was determined by ‘Protein Carbonyl Content Assay Kit’ (Sigma-Aldrich, MAK094-1KT). […] The protein solutions were kept at a concentration of 20 mg/mL for further use.
(§1) BSA-ALD (10 mg/mL) or BSA (10 mg/mL) were treated for 24 hours at 37° C. with the corresponding Gd or Mn complex at a range of concentrations (0.01-0.2 mM), with a total volume of 300 μL maintained for all samples. After 24 hours, an aliquot of the solution (50 μL) was used for longitudinal (T1) relaxation measurements, recorded using a Bruker mq60 Minispec at 1.41 T and 37° C. Longitudinal (T1) relaxation times were measured via an inversion recovery experiment using 10 inversions of duration ranging between 0.05×T1 and 10×T1. Solutions (concentration range: 0.1 mM-1.0 mM) in PBS were run in parallel. To measure the relaxivity of BSA-bound species, sodium cyanoborohydride (10 mg) was added to the solution to irreversibly bind the probe to the protein. After a further 2h incubation at 37° C., protein-bound and protein-free solutions were separated by ultrafiltration. Then 200 μL PBS was added to the residue to dissolve the protein. Longitudinal (T1) relaxation times for the bounded species were measured using a Bruker mq60 Minispec at 1.41 T and 37° C. After the measurement, concentration of corresponding metal ion (Gd/Mn) in the residue and filter were both determined using an Agilent 8800 ICP-MS system. Relaxivity (r1) was determined from the slope of a plot of 1/T1 vs metal concentration for 5 concentrations.

[5] = Relaxivity measurements in PBS; format: physicochemical; conditions: 1.4 T, 37° C.
Description: as §1

[6] = Reaction rates with butyraldehyde measured by HPLC-ICP-MS (Method B); format: physicochemical; conditions: Method b: butyraldehyde 100 μM, probe 25 μM, pH 7.40
Description: Method B: Reaction Rates of Compounds with Butyraldehyde Measured by HPLC-ICP-MS
The reactions were conducted in pH 7.40 phosphate-buffered with butyraldehyde concentration of 100 μM and hydrazine probes at 25 μM. Concentrations of unreacted starting material and condensation products were determined at 10 min time intervals over 2 hours based on their relative integrations. The values were fit to a standard first order rate constant linear equation and the rate constant was extracted from the slope.
Reaction with Butyraldehyde Monitored by HPLC-ICP-MS
Reactions were conducted in pH 7.4 phosphate-buffered saline with butyraldehyde concentration of 100 μM and hydrazine probes at 25 μM. Concentrations of unreacted starting material and condensation products were determined based on their relative integrations at 12 min time intervals over 2 hours.

[7] = system: liver of CCl4 injured mice; format: in vivo, mouse; conditions: CCl4 injured mice
Description: CCl4 Liver Fibrosis Model:
Male C57BL/6 mice (Charles River Laboratories, Wilmington, MA) were treated with carbon tetrachloride for 12 weeks (0.1 ml of 20% CCl4 in olive oil the first week, 30% the second week, and 40% from weeks 3-12) by oral gavage, 2-3 times per week. Control mice were fed vehicle (olive oil) only.
A total of 53 C57BL/6 mice were included to study CCl4 induced hepatic fibrosis: • A. CCl4 for 12 weeks (n=20). Each mouse was imaged with probe 1 and then imaged again 24 hours later with probe 2. Probe 1 and Probe 2 were randomly chosen from GdDOTA, GdCHyd, Mn-12, Gd-9 and Gd-10. • B. Vehicle treated control (n=20). Each mouse was imaged with probe 1 and then imaged again 24 hours later with probe 2. Probe 1 and Probe 2 were randomly chosen from GdDOTA, Mn-12, GdCHyd, Gd-9, Gd-10. • C. CCl4 for 12 weeks (n=3, another 3 pair-wise comparison have been done in group A). Each mouse was imaged with probe 1 and then imaged again 24 hours later with probe 2. […] Each mouse was imaged with probe 1 and then imaged again 24 hours later with probe 2. Probe 1 and Probe 2 were randomly choosing from Gd-9 and Gd-10. • E. CCl4 for 12 weeks (n=3). Each mouse was imaged with Gd-9. After 24 hours, the same mouse was first injected with 1000 μmol/kg of Yb-9 and then injected with 100 μmol/kg of Gd-9 15 min after the Yb-9 injection.
Animals were anesthetized with isoflurane (1-2%) and placed in a specially designed cradle with body temperature maintained at 37° C. The inhaled isoflurane level was adjusted to maintain a respiration rate of 60±5 breaths per minute. The tail vein was cannulated for intravenous (i.v.) delivery of the contrast agent while the animal was positioned in the scanner. Imaging was performed at 4.7 T using a small bore animal scanner with a custom-built volume coil. Mice were imaged with a dose of 100 μmol/kg from 30 mM stock solution of Gd or Mn complex.
For mice liver imaging, a series of baseline images (3D T1 weighted fast low angle shot magnetic resonance imaging (FLASH)) were first acquired (repetition time/echo time=15/2 ms; flip angle, 30°; field of view, 48×30 mm^2; matrix size, […]; slice thickness, 0.25 mm; acquisition time, 3 minutes 20 seconds), then a bolus of Gd or Mn complex was administered i.v. and imaging performed for a period of 45 min p.i. with the repetition acquisition of 3D T1 weighted FLASH sequences. Following the imaging session, animals were sacrificed (75 min p.i.) and liver tissue was subjected to histopathologic analysis.
For liver imaging analysis, a region of interest (ROI) was manually traced encompassing the liver parenchyma while avoiding major blood vessels. A second ROI was placed on the dorsal muscle visible in the same image slice to quantify the signal intensity in the muscle for comparison. Seven ROIs were placed in the field of view without any tissue (air) to measure the variation in background signal. More than 20 axial slices per mouse across the entire liver were analyzed in this fashion. […] Contrast to noise ratio (CNR) was calculated by measuring the difference in signal intensity (SI) between liver and muscle and normalizing to the standard deviation of the signal in the air, eq 21. ΔCNR was calculated by subtracting CNR measured prior to probe injection (CNRPre) from CNR measured after injection (CNRPost), eq 22. […]

[8] = H2^17O transverse relaxivity vs temperature (inner-sphere water number q); format: physicochemical; conditions: temperature dependence of H2^17O transverse relaxivity
From the text: FIG. 24. […] The peak relaxivity is indicative of the number of inner-sphere water molecules (q).
(§2) To meet these requirements, the probes Mn-12, Mn-13 and Mn-14 were designed based on the stable Mn-1,4-DO2A chelate. […] This combination of stability, turn-on relaxivity, and low uptake in healthy liver indicate that Mn-12 is quite promising as a novel probe for liver fibrogenesis detection.

[9] = target: bovine serum albumin (BSA) (Bos taurus, UniProt P02769); assay: Relaxivity measurements with BSA; format: binding; conditions: 1.4 T, 37° C., BSA 10 mg/mL
Chain of bovine serum albumin (BSA) (P02769 25-607): as above
Description: as §1

[10] = Biodistribution of manganese in healthy mice 60 minutes post-injection; format: in vivo, mouse; conditions: 0.1 mmol/kg i.v.
From the text: as §2

Row | SMILES | k (second order rate constant) [1] [M⁻¹ s⁻¹] | Gd:Eu ratio, Left lung [2] | Gd:Eu ratio, Right lung [2] | kinetic inertness to Mn^2+ release [3] | turn-on in relaxivity upon binding to allysine (BSA-Ald bound vs unbound) [4] | r1, +BSA-Ald ([4]; 1.4 T, 37° C., BSA-Ald 10 mg/mL) [mM⁻¹ s⁻¹] | r1, Bound to BSA-Ald ([4]; 1.4 T, 37° C., protein-bound species after NaBH3CN and ultrafiltration) [mM⁻¹ s⁻¹] | r1, PBS [5] [mM⁻¹ s⁻¹] | k (second order rate constant) [6] [M⁻¹ s⁻¹] | liver enhancement ([7]; 45 min p.i.) | ΔCNR (liver to muscle) ([7]; 45 min post injection, 100 μmol/kg i.v., group mean) | inner-sphere number of water molecule (q) [8] | r1, +BSA [9] [mM⁻¹ s⁻¹] | Mn liver levels in healthy mice [10]
1 | NOCC(=O)NCCN(CCNC(=O)CCC1C(=O)[O][Gd]23[O]C(=O)CN4CCN(CCN1CCN(CC4)CC(=O)[O]2)CC(=O)[O]3)CCNC(=O)CON (centres unmarked) [Compound 19] | 0.55 | 1.4 ± 0.1 | 1.3 ± 0.2 |  |  |  |  |  |  |  |  |  |  | 
2 | NN1CCN(C(=O)CCCN2CCN(CCCC(=O)N3CCN(N)CC3)CCN(CC(=O)[O-])CCN(CC(=O)[O-])CC2)CC1.[Mn+2] [Mn-12] |  |  |  | more inert to Mn^2+ release than Mn-1,4-DO2A; also recorded: increased kinetic stability of Mn-12 compared to unmodified Mn-1,4-DO2A | 4 fold and ~5 fold | 4.5 | 7.7 | 1.6 | 4.5 | strong signal enhancement | 1.5 ± 0.8 | 0.44 | 2.2 | little accumulation in the healthy liver; also recorded: baseline Mn levels in liver
